From ChEMBL document CHEMBL1143431, “Synthesis and evaluation of pyrazolo[1,5-b]pyridazines as selective cyclin dependent kinase inhibitors” (Bioorg Med Chem Lett, 2008)
pIC50: −log10 of the molar value.

Assays:
[1] = molecular target: Cyclin-dependent kinase 4 (Homo sapiens, UniProt P11802); test: Inhibition of CDK4 by radioactive glutathione plate-binding assay
[2] = molecular target: Glycogen synthase kinase-3 beta (Homo sapiens, UniProt P49841); test: Inhibition of GSK3-beta by scintillation proximity assay
[3] = molecular target: Cyclin-dependent kinase 2 (Homo sapiens, UniProt P24941); test: Inhibition of human CDK2 by HTRF assay
[4] = molecular target: Vascular endothelial growth factor receptor 2 (Homo sapiens, UniProt P35968); test: Inhibition of VEGFR2 by HTRF assay
Mus musculus [5] = test: Dose normalized AUC in ip dosed mouse; assay type: ADME, organism-based; conditions: in vivo
[6] = Metabolic stability at mouse liver S9 fraction after 60 mins; assay type: ADME, subcellular; conditions: read-out: Stability
Mus musculus [7] = test: Dose normalized AUC in orally dosed mouse; assay type: ADME, organism-based; conditions: in vivo, po

Chain of Glycogen synthase kinase-3 beta (P49841 whole entry): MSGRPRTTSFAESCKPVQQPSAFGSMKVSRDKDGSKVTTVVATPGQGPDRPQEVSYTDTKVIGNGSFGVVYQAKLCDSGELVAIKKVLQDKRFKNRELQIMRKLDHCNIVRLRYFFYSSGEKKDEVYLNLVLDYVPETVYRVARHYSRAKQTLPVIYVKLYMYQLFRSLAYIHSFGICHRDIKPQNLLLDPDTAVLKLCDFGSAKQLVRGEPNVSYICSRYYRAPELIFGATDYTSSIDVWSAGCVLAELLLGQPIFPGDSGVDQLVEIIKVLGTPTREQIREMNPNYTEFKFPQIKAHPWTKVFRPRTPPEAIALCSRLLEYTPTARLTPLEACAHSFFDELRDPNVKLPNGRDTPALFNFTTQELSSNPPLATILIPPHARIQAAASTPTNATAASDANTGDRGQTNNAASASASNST
Chain of Cyclin-dependent kinase 4 (P11802 whole entry): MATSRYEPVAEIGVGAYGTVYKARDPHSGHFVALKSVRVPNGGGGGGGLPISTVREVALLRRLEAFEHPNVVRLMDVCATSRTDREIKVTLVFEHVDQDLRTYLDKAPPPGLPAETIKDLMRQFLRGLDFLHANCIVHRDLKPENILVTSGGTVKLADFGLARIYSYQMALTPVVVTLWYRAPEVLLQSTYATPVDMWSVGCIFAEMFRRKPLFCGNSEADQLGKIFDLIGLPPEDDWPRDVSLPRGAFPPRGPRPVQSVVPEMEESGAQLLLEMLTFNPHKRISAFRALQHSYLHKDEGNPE
Chain of Vascular endothelial growth factor receptor 2 (P35968 whole entry): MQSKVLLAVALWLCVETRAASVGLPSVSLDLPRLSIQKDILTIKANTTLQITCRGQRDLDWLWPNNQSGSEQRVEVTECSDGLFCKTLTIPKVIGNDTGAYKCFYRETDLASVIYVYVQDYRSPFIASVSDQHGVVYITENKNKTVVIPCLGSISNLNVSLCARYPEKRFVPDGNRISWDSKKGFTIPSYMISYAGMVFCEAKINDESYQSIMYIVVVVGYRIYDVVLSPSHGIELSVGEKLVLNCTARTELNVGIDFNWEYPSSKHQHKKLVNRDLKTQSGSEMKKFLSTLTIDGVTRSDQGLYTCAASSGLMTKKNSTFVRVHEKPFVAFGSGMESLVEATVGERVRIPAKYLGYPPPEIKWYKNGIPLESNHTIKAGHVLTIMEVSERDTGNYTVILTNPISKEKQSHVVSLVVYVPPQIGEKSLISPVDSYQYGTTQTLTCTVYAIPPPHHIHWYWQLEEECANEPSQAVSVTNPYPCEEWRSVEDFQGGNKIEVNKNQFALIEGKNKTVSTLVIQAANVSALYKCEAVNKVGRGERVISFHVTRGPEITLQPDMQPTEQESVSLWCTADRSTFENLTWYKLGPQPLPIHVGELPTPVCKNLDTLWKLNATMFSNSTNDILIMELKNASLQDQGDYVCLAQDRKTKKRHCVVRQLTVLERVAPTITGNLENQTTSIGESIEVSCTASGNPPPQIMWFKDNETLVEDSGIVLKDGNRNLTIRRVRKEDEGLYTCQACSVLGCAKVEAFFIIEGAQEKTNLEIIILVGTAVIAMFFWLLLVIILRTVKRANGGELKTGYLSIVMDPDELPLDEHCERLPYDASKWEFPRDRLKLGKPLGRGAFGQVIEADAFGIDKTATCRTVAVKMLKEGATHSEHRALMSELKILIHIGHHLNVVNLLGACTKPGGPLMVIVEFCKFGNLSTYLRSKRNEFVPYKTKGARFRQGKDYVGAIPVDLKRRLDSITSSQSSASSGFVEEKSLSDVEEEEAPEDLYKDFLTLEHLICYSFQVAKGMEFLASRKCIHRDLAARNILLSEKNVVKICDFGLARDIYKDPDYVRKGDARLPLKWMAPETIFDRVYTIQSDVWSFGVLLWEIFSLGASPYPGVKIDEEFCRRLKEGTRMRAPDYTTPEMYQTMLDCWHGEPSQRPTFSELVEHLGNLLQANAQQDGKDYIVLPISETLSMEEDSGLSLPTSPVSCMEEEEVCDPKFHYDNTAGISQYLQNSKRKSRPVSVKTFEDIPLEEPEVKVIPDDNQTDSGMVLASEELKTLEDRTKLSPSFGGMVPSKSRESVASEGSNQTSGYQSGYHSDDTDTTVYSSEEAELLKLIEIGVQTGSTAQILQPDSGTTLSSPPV

pIC50 [1]	pIC50 [2]	pIC50 [3]	SMILES	also measured
5.49			c1cnn2ncc(-c3ccnc(NCCCN4CCOCC4)n3)c2c1 [GW683109X]	
8.10	8.30	8.52	O=[N+]([O-])c1ccc(Nc2nccc(-c3cnn4ncccc34)n2)cc1	
< 4.40			CCCCc1nn2ncccc2c1-c1ccnc(NC2CC2)n1	pIC50 [4]: 5.60
7.92	6.70	7.00	CN1CCN(c2ccc(Nc3nccc(-c4cnn5ncccc45)n3)cc2)CC1	pIC50 [4]: 6.40
8.40		8.70	N#Cc1cccc(Nc2nccc(-c3cnn4ncccc34)n2)c1 [GW778894X]	
6.10	7.30	7.40	O=C(O)c1ccc(Nc2nccc(-c3cnn4ncccc34)n2)cc1	
6.30	4.60		c1cc(-c2cnn3nc(N4CCCC4)ccc23)nc(NC2CC2)n1	
6.70	5.49		C=Cc1ccc2c(-c3ccnc(NC4CC4)n3)cnn2n1	
7.92	7.10	7.30	CCN(CC)Cc1cccc(Nc2nccc(-c3cnn4ncccc34)n2)c1	
7.42			CN(C)CC(O)COc1ccc(Nc2nccc(-c3cnn4nc(N5CCOCC5)ccc34)n2)cc1 (stereo not given)	AUC (Mus musculus [5]): > 7000 ng·kg·h/mg/mL; remaining at 1 h [6]: 46%
6.60	< 4.49		c1csc(-c2ccc3c(-c4ccnc(NC5CC5)n4)cnn3n2)c1	
7.60			CCc1nn2ncccc2c1-c1ccnc(Nc2ccc(N3CCN(C)CC3)cc2)n1	pIC50 [4]: 7.20
5.89	4.60		Oc1ccc2c(-c3ccnc(NC4CC4)n3)cnn2n1	
9.52		9.52	O=[N+]([O-])c1cccc(Nc2nccc(-c3cnn4ncccc34)n2)c1	
7.30			Cc1nn2ncccc2c1-c1ccnc(Nc2ccc(N3CCN(C)CC3)cc2)n1	pIC50 [4]: 7.20
7.59	< 4.60	6.13	CN1CCN(c2ccc(Nc3nccc(-c4cnn5nc(-c6ccc(F)cc6)ccc45)n3)cc2)CC1	
6.60	< 4.49		Fc1ccc(-c2ccc3c(-c4ccnc(NC5CC5)n4)cnn3n2)cc1	

pIC50 [1]	pIC50 [2]	pIC50 [3]	SMILES	also measured
7.10			c1cnn2ncc(-c3ccnc(NC4CC4)n3)c2c1	pIC50 [4]: < 4.70; remaining at 1 h [6]: 85%
	7.80	7.40	CC(C)c1ccc(Nc2nccc(-c3cnn4ncccc34)n2)cc1 [GW805758X]	
6.80	4.60		c1cc(-c2cnn3nc(NC4CCCC4)ccc23)nc(NC2CC2)n1	
6.10			Cc1nn2ncccc2c1-c1ccnc(NC2CC2)n1	pIC50 [4]: < 4.70
6.00		6.00	Clc1ccc(CNc2nccc(-c3cnn4ncccc34)n2)cc1 [GW781673X]	
5.80	4.60		CC(C)Oc1ccc2c(-c3ccnc(NC4CC4)n3)cnn2n1	AUC (Mus musculus [7]): > 1000 ng·kg·h/mg/mL
7.35	6.07	6.64	CC(C)Oc1ccc2c(-c3ccnc(Nc4ccc(N5CCN(C)CC5)cc4)n3)cnn2n1	
5.70			CCc1nn2ncccc2c1-c1ccnc(NC2CC2)n1 [GW683768X]	pIC50 [4]: 5.49
8.10	7.70	7.40	CCN(CC)CCNC(=O)c1cccc(Nc2nccc(-c3cnn4ncccc34)n2)c1	
6.10			CCCCc1nn2ncccc2c1-c1ccnc(Nc2ccc(N3CCN(C)CC3)cc2)n1	pIC50 [4]: 7.60
7.60	8.30	8.70	N#Cc1ccc(Nc2nccc(-c3cnn4ncccc34)n2)cc1	
6.00	< 4.49	6.00	FC(F)(F)CNc1nccc(-c2cnn3ncccc23)n1 [GW683003X]	
7.80	8.10	8.52	c1cc(Nc2nccc(-c3cnn4ncccc34)n2)cc(-c2cocn2)c1	
6.80	7.70	7.80	NC(=O)c1ccc(Nc2nccc(-c3cnn4ncccc34)n2)cc1	
6.40			c1cc(-c2cnn3nc(N4CCOCC4)ccc23)nc(NC2CC2)n1 [GW708336X]	AUC (Mus musculus [7]): > 1000 ng·kg·h/mg/mL
5.70	4.60		COc1ccc2c(-c3ccnc(NC4CC4)n3)cnn2n1	
